Test results as given in article PMC11089505, “Structural Elucidation and Antiviral Activity of Covalent Cathepsin L Inhibitors” (Journal of Medicinal Chemistry, 2024).
Several values for one entry are separate records, joined by “and”; a condition that tells them apart may be missing. Equal entries are not always repeated. Where two headings read alike, the source gives them in different places. Peptide text beside a SMILES is read from it. * marks the point of attachment. Cbz = O=C(OCc1ccccc1)*

Columns and labels:
SARS-CoV-2 Mpro = SARS-CoV-2 Mpro (Severe acute respiratory syndrome coronavirus 2, UniProt P0DTD1); assay type: binding; details: for ΔTm (for Mpro), 2:1 compound to protein mixing ratio: 8 µM Mpro, pH 7.5, 2% DMSO; for 2:1, Tm average (Mpro): 2:1 compound to protein
CatL [1] = target: T1, CatL (Homo sapiens, UniProt P07711, T223A); test: CatL inhibition assay (Ki), substrate Z-RR-AMC; assay type: biochemical
T1 construct: made in house; host or cells: Komagataella pastoris strain GS115
T1 sequence (P07711 114-333 T223A): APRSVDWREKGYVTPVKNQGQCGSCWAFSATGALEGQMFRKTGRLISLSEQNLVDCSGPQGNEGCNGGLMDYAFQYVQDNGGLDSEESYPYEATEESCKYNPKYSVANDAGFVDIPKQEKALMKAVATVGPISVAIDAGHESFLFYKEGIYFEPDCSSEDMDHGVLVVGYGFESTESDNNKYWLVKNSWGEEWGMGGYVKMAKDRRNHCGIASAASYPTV
Procedure: Experiments were performed in a solution of 50 mM sodium acetate, pH 4.0, 50 mM NaCl, 0.1% PEG 6000, and 5 mM DTT. Distinct assays with epoxide inhibitors at pH 6.0 were performed in 50 mM sodium phosphate buffer, 50 mM NaCl, 5 mM DTT, 0.1% PEG 6000, adjusted to pH 6.0.
M1000 pro plate reader (Tecan), the fluorescent peptide substrate Z-RR-AMC, and excitation and emission wavelengths of 370 and 460 nm, respectively.
At first, the inhibitor concentration span was optimized for each inhibitor and the assay buffer. For this initial screening, CatL (5 nM) was mixed with different concentrations of inhibitors (1 nM–50 μM) to determine the range of their inhibition. […] Reaction data were fitted to the […] in GraphPad Prism 9 software: Y = bottom + (top – bottom)/(1 + 10^∧((log IC50 – X) × HillSlope)); X is the log of dose or concentration, Y is the response (fluorescence signal), decreasing as X increases, top and bottom are the plateaus in the same units as Y, log IC50 same log units as X, HillSlope is the slope factor or called the Hill slope.

CatL [2] = target: T1, CatL; test: NanoDSF, thermal stability of CatL; assay type: binding
[3] = Cell viability assay (CellTiter-Blue); details: African green monkey
[4] = 5 µM CatL, pH 5.0, 2% DMSO, 20:1

CC(C)(C)OC(=O)Nc1cccn([C@@H](CC2CC2)C(=O)N[C@@H](C[C@@H]2CCNC2=O)C(=O)C(=O)NCc2ccccc2)c1=O [13b, tert-Butyl N-[1-[(2S)-1-[[(2S)-4-(benzylamino)-3,4-dioxo-1-[(3S)-2-oxopyrrolidin-3-yl]butan-2-yl]amino]-3-cyclopropyl-1-oxopropan-2-yl]-2-oxopyridin-3-yl]carbamate]
ΔTm (for Mpro), 2:1 compound to protein mixing ratio (SARS-CoV-2 Mpro): 15,7 ± 0,1 °C and 15.7 °C | 2:1, Tm average (Mpro) (SARS-CoV-2 Mpro): 70.3 °C | Residual activity (Vi/V0) (CatL [1]; 13b 31.346 nM): 0.9675 and 0.9627 and 0.6897 and 0.9692 and 0.9864 and 0.9669 | Residual activity (Vi/V0) (CatL [1]; 13b 52.243 nM): 0.8888 and 0.9182 and 0.9209 and 0.8812 and 0.9125 | remaining activity at 0.052243 µM (CatL [1]; 13b 52.243 nM, read-out: Residual activity (Vi/V0)): 90.6% | Residual activity (Vi/V0) (CatL [1]; 13b 87.071 nM): 0.8265 and 0.8739 and 0.8771 and 0.8407 and 0.8552 | remaining activity at 0.087071 µM (CatL [1]; 13b 87.071 nM, read-out: Residual activity (Vi/V0)): 84.2% | Residual activity (Vi/V0) (CatL [1]; 13b 145.119 nM): 0.7626 and 0.6965 and 0.7661 and 0.7352 and 0.7663 | remaining activity at 0.145119 µM (CatL [1]; 13b 145.119 nM, read-out: Residual activity (Vi/V0)): 77.4% | Residual activity (Vi/V0) (CatL [1]; 13b 241.865 nM): 0.6661 and 0.7001 and 0.6736 and 0.645 and 0.6598 | Residual activity (Vi/V0) (CatL [1]; 13b 403.108 nM): 0.5626 and 0.5615 and 0.5111 and 0.5683 and 0.5779 | remaining activity at 0.403108 µM (CatL [1]; 13b 403.108 nM, read-out: Residual activity (Vi/V0)): 56.2% | Residual activity (Vi/V0) (CatL [1]; 13b 671.846 nM): 0.4836 and 0.4354 and 0.4683 and 0.4708 and 0.465 | remaining activity at 0.671846 µM (CatL [1]; 13b 671.846 nM, read-out: Residual activity (Vi/V0)): 47.5% | Residual activity (Vi/V0) (CatL [1]; 13b 1119.744 nM): 0.4051 and 0.4054 and 0.4004 and 0.3916 and 0.3989 | remaining activity at 1.11974 µM (CatL [1]; 13b 1119.744 nM, read-out: Residual activity (Vi/V0)): 38.3% | Residual activity (Vi/V0) (CatL [1]; 13b 1866.240 nM): 0.3283 and 0.3165 and 0.3193 and 0.3153 and 0.3192 | remaining activity at 1.86624 µM (CatL [1]; 13b 1866.240 nM, read-out: Residual activity (Vi/V0)): 32.5% | Residual activity (Vi/V0) (CatL [1]; 13b 3110.400 nM): 0.258 and 0.2535 and 0.24 and 0.2503 and 0.2489 | remaining activity at 3.1104 µM (CatL [1]; 13b 3110.400 nM, read-out: Residual activity (Vi/V0)): 24.7% | Residual activity (Vi/V0) (CatL [1]; 13b 5184.000 nM): 0.1828 and 0.1618 and 0.1725 and 0.1795 and 0.1597 | Residual activity (Vi/V0) (CatL [1]; 13b 8640.000 nM): 0.1228 and 0.1221 and 0.1079 and 0.1237 and 0.1244 | remaining activity at 8.64 µM (CatL [1]; 13b 8640.000 nM, read-out: Residual activity (Vi/V0)): 12.4% | Residual activity (Vi/V0) (CatL [1]; 13b 24000.000 nM): 0.04988 and 0.04656 and 0.04753 and 0.05569 and 0.04454 | remaining activity at 24 µM (CatL [1]; 13b 24000.000 nM, read-out: Residual activity (Vi/V0)): 4.42% | Ki (CatL [1]; CatL, Z-RR-AMC, pH 4.0, 37 °C, read-out: Ki): 0.293 µM | 2:1, Tm average (CatL) (CatL [2]): 68.7 °C | 20:1, Tm average (CatL) (CatL [2]): 76.7 °C | ΔTm (for CatL), 2:1 compound to protein mixing ratio (CatL [2]; pH 5): 5,6 ± 0,1 °C and 5.6 °C | ΔTm (for CatL), 20:1 compound to protein mixing ratio (CatL [2]; pH 5): 13,6 ± 0,1 °C and 13.6 °C

CC(C)(C)OC(=O)NCC=O [BOCA, tert-Butyl N-2-oxoethylcarbamate]
ΔTm (for Mpro), 2:1 compound to protein mixing ratio (SARS-CoV-2 Mpro): -0,3 ± 0,1 °C | ΔTm (for Mpro), 2:1 compound to protein mixing ratio (SARS-CoV-2 Mpro; listed as N-BOCAAA): -0.3 °C | 2:1, Tm average (Mpro) (SARS-CoV-2 Mpro): 54.7 °C | ΔTm (for CatL), 20:1 compound to protein mixing ratio (CatL [2]; [4]): 4,4 ± 0,4 °C and 4.4 °C | 2:1, Tm average (CatL) (CatL [2]; 2:1 compound to protein): 62.8 °C | 20:1, Tm average (CatL) (CatL [2]; 20:1 compound to protein): 67.5 °C | ΔTm [K] for CatL, 2:1 ratio (CatL [2]; Table S1, 2:1 ratio): -0.3 ± 0.1 K

CC(C)[C@H](NC(=O)OCc1ccccc1)C(=O)N[C@H](C=O)Cc1ccccc1 [CI-III, N-Cbz-Val-Phe-aldehyde] (Cbz-Val-Phe-aldehyde)
2:1, Tm average (Mpro) (SARS-CoV-2 Mpro): 54.5 °C | remaining activity at 0.000282 µM (CatL [1]; read-out: Residual activity (Vi/V0), CI-III 0.282 nM): 60.4% | remaining activity at 0.000404 µM (CatL [1]; read-out: Residual activity (Vi/V0), CI-III 0.404 nM): 45.4% | remaining activity at 0.000576 µM (CatL [1]; read-out: Residual activity (Vi/V0), CI-III 0.576 nM): 33.4% | remaining activity at 0.000824 µM (CatL [1]; read-out: Residual activity (Vi/V0), CI-III 0.824 nM): 23.1% | remaining activity at 0.001176 µM (CatL [1]; read-out: Residual activity (Vi/V0), CI-III 1.176 nM): 16.3% | remaining activity at 0.001681 µM (CatL [1]; read-out: Residual activity (Vi/V0), CI-III 1.681 nM): 10.8% | remaining activity at 0.002401 µM (CatL [1]; read-out: Residual activity (Vi/V0), CI-III 2.401 nM): 6.67% | remaining activity at 0.00343 µM (CatL [1]; read-out: Residual activity (Vi/V0), CI-III 3.430 nM): 4.1% | 2:1, Tm average (CatL) (CatL [2]; 2:1 compound to protein): 75.2 °C | 20:1, Tm average (CatL) (CatL [2]; 20:1 compound to protein): 81.2 °C

CC(C)[C@H](NC(=O)OCc1ccccc1)C(=O)N[C@H](C=O)Cc1ccccc1 [CIII] (Cbz-Val-Phe-aldehyde)
viability at 48 h, 1e-05 µM [3]: 95.8% | viability at 48 h, 0.0001 µM [3]: 95.4% | viability at 48 h, 0.001 µM [3]: 94.2% | viability at 48 h, 0.01 µM [3]: 95.3% | viability at 48 h, 0.1 µM [3]: 96% | viability at 48 h, 1 µM [3]: 98.9% | viability at 48 h, 10 µM [3]: 100%

CC(C)C[C@@H](C=O)NC(=O)[C@@H](NS(=O)(=O)c1ccc(F)cc1)C(C)C [CIVI]
viability at 48 h, 1e-05 µM [3]: 95.9% | viability at 48 h, 0.0001 µM [3]: 96.7% | viability at 48 h, 0.001 µM [3]: 93.8% | viability at 48 h, 0.01 µM [3]: 95.9% | viability at 48 h, 0.1 µM [3]: 95.1% | viability at 48 h, 1 µM [3]: 98.8% | viability at 48 h, 10 µM [3]: 98.3%

CCCC(NC(=O)C(CC(C)C)NC(=O)OCc1ccccc1)C(=O)C(=O)NCc1ccccn1 (stereo not shown) [CIXII]
viability at 48 h, 1e-05 µM [3]: 98.9% | viability at 48 h, 0.0001 µM [3]: 98.8% | viability at 48 h, 0.001 µM [3]: 98.3% | viability at 48 h, 0.01 µM [3]: 100% | viability at 48 h, 0.1 µM [3]: 98.8% | viability at 48 h, 1 µM [3]: 103% | viability at 48 h, 10 µM [3]: 106%

CC[C@@H](C)[C@H](NS(=O)(=O)c1cccc2ccccc12)C(=O)N[C@H](C=O)Cc1c[nH]c2ccccc12 [CLIIV]
viability at 48 h, 1e-05 µM [3]: 98.8% | viability at 48 h, 0.0001 µM [3]: 101% | viability at 48 h, 0.001 µM [3]: 98% | viability at 48 h, 0.01 µM [3]: 100% | viability at 48 h, 0.1 µM [3]: 98.7% | viability at 48 h, 1 µM [3]: 102% | viability at 48 h, 10 µM [3]: 101%

CN(C)C(=O)COC(=O)Cc1ccc(OC(=O)c2ccc(NC(=N)N)cc2)cc1 [Camostat]
ΔTm (for Mpro), 2:1 compound to protein mixing ratio (SARS-CoV-2 Mpro): -0.4 °C | 2:1, Tm average (Mpro) (SARS-CoV-2 Mpro): 54.6 °C | ΔTm (for CatL), 20:1 compound to protein mixing ratio (CatL [2]; [4]): -0.2 °C | 20:1, Tm average (CatL) (CatL [2]; 20:1 compound to protein): 62.9 °C

CCOC(=O)[C@H]1O[C@@H]1C(=O)N[C@@H](CC(C)C)C(=O)NCCC(C)C [E-64d, Ethyl (2S,3S)-3-[[(2S)-4-methyl-1-(3-methylbutylamino)-1-oxopentan-2-yl]carbamoyl]oxirane-2-carboxylate]
ΔTm (for Mpro), 2:1 compound to protein mixing ratio (SARS-CoV-2 Mpro): -0,3 ± 0,3 °C | ΔTm (for Mpro), 2:1 compound to protein mixing ratio (SARS-CoV-2 Mpro; listed as E-64d/Aloxistatin): -0.3 °C | 2:1, Tm average (Mpro) (SARS-CoV-2 Mpro): 54.7 °C | ΔTm (for CatL), 2:1 compound to protein mixing ratio (CatL [2]; 5 µM CatL, pH 5.0, 2% DMSO, 2:1): 4,5 ± 0,1 °C and 4.5 °C | ΔTm (for CatL), 20:1 compound to protein mixing ratio (CatL [2]; [4]): 11,7 ± 0,4 °C and 11.7 °C | 2:1, Tm average (CatL) (CatL [2]; 2:1 compound to protein): 67.6 °C | 20:1, Tm average (CatL) (CatL [2]; 20:1 compound to protein): 74.8 °C | ΔTm [K] for CatL, 2:1 ratio (CatL [2]; Table S1, 2:1 ratio): 4.5 ± 0.1 K

CC(=O)N[C@@H](CC(C)C)C(=O)N[C@@H](CC(C)C)C(=O)N[C@H](C=O)CCCNC(=N)N [Leupeptin]
ΔTm (for Mpro), 2:1 compound to protein mixing ratio (SARS-CoV-2 Mpro): 1,2 ± 0,1 °C and 1.2 °C | 2:1, Tm average (Mpro) (SARS-CoV-2 Mpro): 56.2 °C

Cc1ccc(S(=O)(=O)N[C@@H](Cc2ccccc2)C(=O)CCl)cc1 [TPCK, N-α-Tosyl-L-phenylalanyl chloromethyl ketone]
2:1, Tm average (CatL) (CatL [2]): 67.8 °C | ΔTm [K] for CatL, 2:1 ratio (CatL [2]): 4.7 ± 0.1 K | ΔTm (for CatL), 2:1 compound to protein mixing ratio (CatL [2]; pH 5): 4,7 ± 0,1 °C and 4.7 °C | ΔTm (for CatL), 20:1 compound to protein mixing ratio (CatL [2]; pH 5): 7,0 ± 0,1 °C and 7 °C
